Laboratory results: PMC8944596, “Determination of the Relationships between the Chemical Structure and Antimicrobial Activity of a GAPDH-Related Fish Antimicrobial Peptide and Analogs Thereof” (Antibiotics, 2022)
In brackets after ≈: the same amount, converted by molar mass. Ends that are not written are not given here.

How the values were obtained:
Z. rouxii LL12_088 = test: Antifungal microdilution MIC/MFC; assay type: cell-based, Zygosaccharomyces rouxii; settings: 99.9% inhibition of yeast growth by CFU counts on PDA
Description: Mucor racemosus LMA-722, Paecilomyces sp. 5332-9a, and Aspergillus niger 3071-13 were used as filamentous fungal strains. Saccharomyces boulardii 27169, Rhodotorula mucilaginosa 27173, and Zygosaccharomyces rouxii LL12_088 were used as yeast strains. Fungal strains were sub-cultured on potato dextrose agar (PDA) (BD, Sparks, USA) plates, at 25 °C, at least two times, before being used for antimicrobial and membrane permeabilization testing.
MICs were also tested using microdilutions in 96-well plates for fungal strains. The protocol used was roughly the same as that described for bacterial strains. RPMI 1640 (Sigma-Aldrich, St. Louis, MO, USA), buffered with MOPS (Fisher Scientific, Fair Lawn, NJ, USA) (0.164 M, pH = 7), was used instead of MHB, according to CLSI guidelines. Potato dextrose broth was used for microplates inoculated with Z. rouxii yeast. For filamentous fungi, conidia were harvested from 7-day cultures and diluted in buffered RPMI 1640 to obtain a suspension containing 5 × 10^4 CFU/mL, as assessed with a COUNTESS II FL automatic cell counter (Thermo Fisher Scientific, Waltham, MA, USA). […] Plates were then incubated for 24 (yeasts) or 48 (filamentous fungi) h at 25 °C. […] Natamycin (Sigma-Aldrich, St. Louis, MO, USA) was used as positive control for all fungal strains. […]

E. coli ATCC 25922 [1] = test system: E. coli ATCC 25922; set-up: method as in PMID 1605597; settings: cited from earlier work
P. aeruginosa ATCC 27853 = test system: P. aeruginosa ATCC 27853; set-up: method as in PMID 1605597; settings: cited from earlier work
E. coli ATCC 25922 [2] = test: Broth microdilution MIC/MBC; assay type: cell-based; settings: Escherichia coli, ATCC25922, MHB, 5 × 10^5 CFU/mL, 16 h at 37 °C, no visible growth, three independent repetitions, two technical replicates
Description: Escherichia coli ATCC 25922, Escherichia coli ATCC 11229, Pseudomonas aeruginosa ATCC 27853, Aeromonas salmonicida subsp. salmonicida 69 R3, Aeromonas salmonicida subsp. salmonicida 69 R5 [53], Micrococcus luteus LMA-272, and Listeria ivanovii ATCC 19119 were used for antibacterial activity testing. Details on these strains used in this study are included in Table 6. All these strains were cultivated in tryptic soy broth (TSB) (BD, Sparks, NV, USA), except for L. ivanovii, which was grown in brain heart infusion (BHI) broth (BD, Sparks, USA). All bacterial strains were grown at 37 °C, except for the two A. salmonicida strains, which were incubated at 20 °C. Strains were sub-cultured at least twice, before being used for antimicrobial and membrane permeabilization assays.
MICs for bacterial strains were determined using a broth microdilution protocol. Two-fold dilutions of peptide solutions ([…]) were made in Mueller Hinton Broth (MHB) (Oxoid, Basingstoke, UK) in 96-well polypropylene clear round bottom microplates (Corning Inc., Corning, NY, USA). […] Final volumes in the wells were of 200 μL. […] After reading of the MICs, 20 μL of the wells that were showing no visible bacterial growth were inoculated on tryptic soy agar (TSA) (or BHI agar for Listeria ivanovii) plates, which were then incubated at the appropriate temperature for 24 h. […]

Compound: HGKKVEIVAIND [Analog 4]
- MFC, Z. rouxii LL12_088 (Z. rouxii LL12_088): n.f.a. (No fungicidal activity)

Compound: magainin-2
- MIC, E. coli ATCC 25922 (E. coli ATCC 25922 [1]): 50 µg/mL
- MIC, P. aeruginosa ATCC 27853 (P. aeruginosa ATCC 27853): 50 µg/mL

Compound: O=C(N[C@H](CO)[C@H](O)c1ccc([N+](=O)[O-])cc1)C(Cl)Cl [Chloramphenicol]
- MIC (E. coli ATCC 25922 [2]): 4 µg/mL (≈ 12.4 µM)
